# Test results published in patent US5770623A, “Argine antagonists for inhibition of systemic hypotension associated with nitric oxide production or endothelial derived relaxing factor” (Board of Regents, The University of Texas System, priority 1995, dated 1998).
# Entries after “also recorded” stand apart in the source; their conditions may differ. Like-named read-outs stand apart in the source and are kept apart here.
# Experiments:
# [1] = test system: murine endothelial cells exposed to Gamma-Interferon and TNF (nitric oxide production); test: Inhibition of nitrite production by MBEC exposed to IFN (100 U/ml) and TNF (500 U/ml); format: cell-based; conditions: for IC50: Mus musculus, Endothelial cell
# Procedure: Endothelial cells--MBEC's were isolated from murine brain microvessels and cultured on gelatin-coated tissue culture dishes in DME/F12 media supplemented with 2% PPPHS, 5% FBS (Hyolone), 50 μg/ml ECGF (Biomed Tech), and 10 U/ml heparin (Sigma) as previously described (Belloni et al. 1989). The endothelial derivation of MBEC's was determined by the presence of a non-thrombogenic surface to platelets and immunofluorescent staining for Factor VIII related antigen. MBEC's were used between passage 6-9 for all experiments.
# Nitrite Assay--MBE cells were cultured on gelatin-coated well plates (Corning) in 100 μl of culture medium and treated with cytokines at 3 days post-confluence. After 48 hours, nitrite production was determined by a colorimetric assay. […] All treatments were performed in triplicate and data presented as the mean value±standard deviation. […]
# production by murine endothelial cells exposed to GammaInterferon (100
# U/ml) and TNF (500 U/ml) in vitro.
# [2] = test system: guinea pig pulmonary artery rings; test: Relaxation of preconstricted guinea pig pulmonary artery rings
# rabbit aortic rings = test: ACh-induced relaxation of isolated rabbit aortic rings; conditions: for effect on ACh-induced vasorelaxation: NE-preconstricted rabbit aorta, FIG. 11
# Text: FIG. 9b compares concentration-response relationships for the same set of mono- and disubstituted arginine analogs as FIG. 9a, plus an additional dimethyl analog with the two methyl groups on different guanidino nitrogens. The test is for inhibition of ACh-induced vasorelaxation in isolated rabbit aortic rings. The points plotted represent means±S.E. of the maximum responses to ACh observed in the presence of the indicated concentrations of analogs (n=4).
# Guinea pig pulmonary artery (GP PA), rat and rabbit aorta (Ao), and dog coronary (CA) and femoral artery (FA) were precontracted with NE (1 μM) and relaxed with a single concentration of ACh. Concentration of ACh: GP PA 1 μM, rat Ao […], rabbit Ao 0.3, dog CA […] and […] 0.1 μM. […] The concentrations of L-citrulline (L-cit), D-arginine (D-arg) and L-arginine (L-arg) were all 0.5 mM. Bars are mean values±SEM (n=4-6).
# FIG. 11 contains representative physiograph tracings which depict ACh-induced relaxation of NE-preconstricted rings prepared from rabbit aorta (upper panel) and human internal mammary artery (lower panel).
# endotoxin-treated dogs = format: in vivo, dog; parameters: blood pressure after L-arginine / change in SAP after L-arginine: dose or concentration left out as unconfirmed; conditions: for Cardiac Output / Heart Rate / Systemic Arterial Pressure / Systemic Vascular Resistance: Table 1, Study 1: Endotoxin-treated (n = 4)
# Procedure: (§1) Animals: Studies were carried out on 12 conditioned mongrel dogs (9 males and 3 females) weighing 22-32 kg (avg=25.3 kg). Animal care was in accordance with the recommendations of the American Association for Accreditation of Laboratory Animal Care, and met all standards prescribed by the Guide for the Care and Use of Laboratory Animals (Guide for the Care and Use of Laboratory Animals (1978) Dept. of Health, Education and Welfare, Washington, D.C. (Publ. No. 78-23). Animal protocols were approved by The University of Texas Animal Welfare Committee. The dogs were fasted overnight prior to the day of experimentation. They were anesthetized with sodium pentobarbital (25 mg/kg I.v.). Dogs were then endotracheally intubated and ventilated with a piston-driven respirator (Harvard instruments) using room air at a tidal volume of 20 ml/kg and at a rate of 10 to 12 breaths per minute, adjusted to achieve a normal arterial pH and pCO2 (Instrumentation Laboratories 1L13012 pH/Blood Gas Analyzer). Catheters were placed percutaneously into the femoral and pulmonary arteries; In the latter, a flow-directed thermal-dilation catheter was used (Abbott Critical Care Systems).
# (§2) Physiologic measurements: Mean SAP and heart rate were continuously monitored (Parametron 7048 Monitoring System, Roche) and stored on a magnetic disk using an analog-to-digital converter (Scientific Solutions, Inc.). Cardiac output (CO) was determined as the mean of six measurements by thermal-dilution. Systemic vascular resistance was calculated as (SAP X80)/CO and expressed as […].
# (§3) Protocol: After the blood pressure and heart rate stabilized, endotoxin (40 ug/kg, in 10 ml of phosphate-buffered saline (PBS), pH 7.4) was infused i.v. over 2 minutes. This dose of endotoxin typically induces severe and often lethal cardiovascular collapse in the dog. Blood pressure was monitored, and when either SAP fell below 60 mmHg or a stable nadir in systemic arterial pressure (SAP) was maintained for 10 minutes, L-NMA was administered (20 mg/kg in 5 ml of PBS i.v. over 1 min.). In most experiments, L-arginine (400 mg/kg in 20 mi PBS) was administered ten minutes later by i.v. infusion over 2 minutes. In control experiments, dogs without prior exposure to endotoxin received L-NMA alone. To simulate the hypotension observed in dogs receiving endotoxin, one group of dogs received a continuous i.v. infusion of nitroglycerin (2 mg/ml) at a rate adjusted to maintain the SAP at 60-70 mm Hg. Nitroglycerin-treated dogs then received L-NMA (20 mg/kg) and 20 minutes later L-arginine was administered […].
# control dogs = test: L-NMA in control dogs (Example 4); format: in vivo, dog; conditions: for increase in blood pressure (SAP) by L-NMA: control dogs, L-NMA 20 mg/kg, n=4
# Procedure: as §1, §2, §3
# endotoxemic dogs = test: Endotoxin-induced hypotension in dogs (Example 5); format: in vivo, dog
# Procedure: Administration of ET to dogs was clearly more toxic and less predictable than TNF administration. […] Within 1.5 minutes the blood pressure increased by 33±2.5 mmHg.
# L929 cells = test: Cytolytic activity of rh-TNF against Actinomycin D-treated L929 cells; format: cell-based, murine
# Procedure: TNF bioactivity was measured by the cytotoxicity towards murine L929 cells, in vitro.
structure (smiles),measurement,setting,value
"N=C(N)NCCC[C@H](N)C(=O)O [L-arginine, reference compound]",reversal of NMMA inhibition of nitrite production,[1]; 8 mM L-arginine vs 1 mM NMMA,completely reversing the effects of 1 mM NMMA
same,nitrite concentration upon adding L-arginine back to arginine-free medium,[1]; MBEC exposed to TNF and IFN,increased in a dose dependent manner
same,effect on relaxation in the presence of NMMA,[2]; excess L-arginine,restored relaxation in the presence of NMMA
same,effect on ACh-induced vasorelaxation,rabbit aortic rings,restores relaxation
same,effect of L-arginine on L-NMA effect,endotoxin-treated dogs; 400 mg/kg L-arginine,reversed the effect of L-NMA and restored the endotoxin-induced hypotension
same,blood pressure after L-arginine,"endotoxin-treated dogs; 2 hours after L-NMA dosing, decline",< 45 mm Hg
same,blood pressure after L-arginine,"endotoxin-treated dogs; FIG. 24, L-arginine",43 mm Hg
same,change in SAP after L-arginine,"endotoxin-treated dogs; FIG. 24, L-arginine",-77 mm Hg
same,Cardiac Output,endotoxin-treated dogs,2.31 ± 0.43 L/min
same,Heart Rate,endotoxin-treated dogs,116.7 ± 18.8 beats/min
same,Systemic Arterial Pressure,endotoxin-treated dogs,52.7 ± 8.8 mmHg
same,Systemic Vascular Resistance,endotoxin-treated dogs,1851 ± 171 dynes-sec/cm^5
same,effect of L-arginine on pressor effect of L-NMA,control dogs; 400 mg/kg,fully reversed the pressor effect of L-NMA
same,effect of L-arginine after NMMA,endotoxemic dogs; L-arginine 100 mg/kg,fall precipitously below the pre-NMMA level
"CNC(=N)NCCC[C@H](N)C(=O)O [NMMA, N^G -methyl-L-arginine]",concentration giving maximal inhibition of nitrite production,[1]; MBEC exposed to TNF and IFN,1 mM
same,effect of NMMA on nitrite production,[1]; MBEC exposed to TNF and IFN,inhibited
same,IC50,"[1]; 48 h, read-out: ED50% (effective dose that inhibited 50% of the nitrite production), murine endothelial cells, Gamma-Interferon (100 U/ml) and TNF (500 U/ml), in vitro",337 µM
same,IC50,"[1]; read-out: E.D. 50% for inhibition of nitrite production, MBEC exposed to TNF and IFN",330 µM
same,"effect on vasodilatation by ACh, LTD4 and HIST",[2]; endothelium-dependent vasodilators,"blocks endothelium-dependent relaxation; also recorded: blocks the action of ACh, LTD4 and HIST"
same,inhibition of EDRF/NO synthesis,"[2]; guinea pig pulmonary artery rings, 1 μM NE, ACh",served as inhibitors of EDRF/NO synthesis
same,inhibition of EDRF/NO in vascular preparation,"[2]; guinea pig pulmonary artery, NMMA 100 μM",arginine reversible inhibitor of EDRF/NO
same,effect on vasodilatation by SNP,"[2]; sodium nitroprusside, endothelium-independent",does not inhibit
same,effect on ACh-induced vasorelaxation,rabbit aortic rings,attenuate ACh-induced vasorelaxation
same,inhibition of EDRF/NO in vascular preparation,"rabbit aortic rings; rabbit aorta, NMMA 100 μM",arginine reversible inhibitor of EDRF/NO
same,anti-hypotensive effect in endotoxemic dog,endotoxin-treated dogs; 20 mg/kg L-NMA,rapid and strong anti-hypotensive effect; also recorded: restores blood pressure to normal or near normal values
same,increase in SAP by L-NMA,"endotoxin-treated dogs; FIG. 24, 20 mg/kg, within 10 min",73 mm Hg
same,"duration of maintained blood pressure, first dose","endotoxin-treated dogs; FIG. 24, first dose of L-NMA",48 min
same,SAP maintained after second dose,"endotoxin-treated dogs; FIG. 24, for 2 hrs",greater than 100 mm Hg
same,time to normalization / reversal of hypotension,endotoxin-treated dogs; L-NMA 20 mg/kg i.v.,≤ 1.5 min
same,increase in SVR by L-NMA,"endotoxin-treated dogs; L-NMA, endotoxin-treated",2060±338 dynes-sec/cm^5
same,Cardiac Output,endotoxin-treated dogs,2.03 ± 0.32 L/min
same,Heart Rate,endotoxin-treated dogs,123.3 ± 4.8 beats/min
same,Systemic Arterial Pressure,endotoxin-treated dogs,107 ± 9.6 mmHg
same,Systemic Vascular Resistance,endotoxin-treated dogs,4462 ± 552 dynes-sec/cm^5
same,duration of normal blood pressure with additional dose,endotoxin-treated dogs; additional dose of L-NMA 20 mg/kg,at least 2 hours
same,increase in SAP by L-NMA,"endotoxin-treated dogs; endotoxemic dogs, L-NMA 20 mg/kg, n=4",47.8±6.8 mmHg
same,HR and CO after L-NMA,endotoxin-treated dogs; endotoxin-treated,unchanged
same,pressor effect of doses greater than 20 mg/kg,"endotoxin-treated dogs; limited dose response studies, versus 20 mg/kg",do not have a significantly greater pressor effect
same,duration of normal blood pressure after single dose,endotoxin-treated dogs; single i.v. dose L-NMA 20 mg/kg,30 to 60 min
same,Cardiac Output,"control dogs; Table 2, control dogs (n = 4)",2.12 ± 0.26 L/min
same,Heart Rate,"control dogs; Table 2, control dogs (n = 4)",82.5 ± 6.1 beats/min
same,Systemic Arterial Pressure,"control dogs; Table 2, control dogs (n = 4)",153.8 ± 11.4 mmHg
same,Systemic Vascular Resistance,"control dogs; Table 2, control dogs (n = 4)",5967 ± 523 dynes-sec/cm^5
same,increase in blood pressure (SAP) by L-NMA,control dogs; listed as L-NMA,24.8±2.7 mmHg
same,increase in blood pressure (SAP) by L-NMA,control dogs; listed as N^G -methyl-L-arginine,24.8±4.7 mmHg
same,increase in SVR,control dogs; other two control dogs,about 1400 dynes-sec/cm^5
same,decrease in cardiac output,control dogs; two of four control dogs,> 1.5 L/min
same,increase in SVR,control dogs; two of four control dogs with marked decrease of cardiac output,≥ 3500 dynes-sec/cm^5
same,blood pressure with readministration of NMMA,endotoxemic dogs; FIG. 24,maintained
same,increase in blood pressure by NMMA,endotoxemic dogs; NMMA 5 mg/kg after ET 1 μg/kg,33±2.5 mmHg
same,time to blood pressure increase,endotoxemic dogs; NMMA 5 mg/kg after ET 1 μg/kg,≤ 1.5 min
same,increase in blood pressure by NMMA,"endotoxemic dogs; lethal shock, 100 μg/ml endotoxin, NMMA 20 mg/kg",65 mm
same,TNF Activity,L929 cells; [NMMA] 0.125 mM,536.9 Units/ml
same,TNF Activity,L929 cells; [NMMA] 0.250 mM,538.2 Units/ml
same,TNF Activity,L929 cells; [NMMA] 0.500 mM,562.4 Units/ml
same,TNF Activity,L929 cells; [NMMA] 1.0 mM,415.7 Units/ml
same,effect on cytolytic effect of TNF towards tumor cells,"L929 cells; murine L929 cells, in vitro",did not alter the cytolytic effect of TNF
